Data on five molecules can be found in patent US20060216266A1, “Absorbable alpha-cyanoacrylate compositions” (priority 2005, published 2006).

Data set [1] in a line: Lap shear testing using pig skin. The following applies: 1/2" x 1" overlap, about 100 μl adhesive, cure 20~30 min, Instron pulling rate 5 mm/min, about 10 joints. On the procedure: General Procedure for Lap Shear Testing Using Pig Skin
Fresh pig skin was harvested from the back of the pig within 5 hours post sacrifice. The hair was removed by trimming and shaving to expose a smooth skin surface. The fat attached to the inside skin surface was trimmed away. The skin was cut into 2″×1″ coupons and covered by saline moist paper towel before use.
The external surface of the skin was used as bonding surface to prepare the lap shear joint samples.
The coupons were patted dry prior to forming the lap shear joint. About 1 00 μl of adhesive was deposited to one coupon within ½″ from the nearer end and smoothed to cover a ½″×1″ area (FIG. 1). The other coupon was placed over the area of the coupon with applied adhesive to form an overlap of ½″×1″. A 1 lb weight was placed on top of the overlap area. The joint was allowed to cure for 20˜30 min and the strength of the joint was tested as described below.
The strength of the cured joint was tested using an Instron (Model 5544) with a pulling rate of 5 mm/min. The maximum load for the joint to fail was recorded.
Typically, about 10 joint samples were tested for each adhesive.

A short description of data set [2]: Glass transition temperature of polymer film. The conditions noted are these: adhesive polymer formed from the monomer. It counts as physicochemical. On the procedure:
A 1″×1″ Prolene mesh (Ethicon, Inc.) was briefly rinsed with 0.5% wt NaHCO3 aqueous solution and patted dry. The mesh was placed on a freshly prepared Agar plate in a petri dish and about 100 mg of monomer adhesive was applied and spread evenly across the mesh. The monomer adhesive was allowed to cure completely overnight with the petri dish covered and sealed with parafilm. The fully cured polymer film formed over the mesh was removed and rinsed with deionized water to remove any Agar attached and patted dry with paper towel. The thickness of the polymer film was about 0.6 mm.

Data set [3] is described as follows: Bonding of two moist fingertips by monomer. The conditions noted are these: very small amount of monomer placed between two moist fingertips.

On to `C=C(C#N)C(=O)OC(C)C(=O)OCCCC` (centres unmarked) [Bu-Lac-CA, 2-Cyano-acrylic acid 1-butoxycarbonyl-ethyl ester, reference compound], for which the “Load (maximum load for the lap shear joint to fail)” value (“Load” for short) in data set [1] came out at 4.96 ± 0.67 Ib. In addition, the “Glass Transition Temperature (Tg, ° C.)” value in data set [2] is 52 °C. In addition, in data set [3], the Bonding of fingertips result is reported as “bonded the fingertips strongly within one minute”.

As for `C=C(C#N)C(=O)OC(CCCC)C(=O)OCC` (stereo not drawn) [Et-α-CPL-CA, 2-(2-Cyano-acryloyloxy)-hexanoic acid ethyl ester], the “Load” value in data set [1] is recorded as 1.26 ± 0.29 Ib.

On to `C=C(C#N)C(=O)OC(CCC)CC(=O)OCC` (stereo not drawn) [Et-β-CPL-CA, 3-(2-Cyano-acryloyloxy)-hexanoic acid ethyl ester], for which, in data set [1], the “Load” value is 4.49 ± 0.68 Ib. Further, the “Glass Transition Temperature (Tg, ° C.)” value in data set [2] was −11 °C. Further, the Bonding of fingertips result in data set [3] is reported as “bonded the fingertips strongly within one minute”.

In the case of `C=C(C#N)C(=O)OC(C)CC(=O)OCC` (stereo not drawn) [Et-β-HBT-CA, 3-(2-Cyano-acryloyloxy)-butyric acid ethyl ester], in data set [1], the “Load” value is recorded as 4.09 ± 0.48 Ib. Moreover, the “Glass Transition Temperature (Tg, ° C.)” value in data set [2] was determined as 32 °C. Moreover, the Bonding of fingertips entry in data set [3] was “bonded the fingertips strongly within one minute”.

With `C=C(C#N)C(=O)OCCCCCC(=O)OCC` [Et-ε-CPL-CA, 6-(2-Cyano-acryloyloxy)-hexanoic acid ethyl ester], the “Load” value in data set [1] is on record as 3.68 ± 0.64 Ib.
